Columns and labels:
[1] = system: frog; assay: Concentration in urinary bladder of female frog.; assay type: functional, tissue-based
[2] = Compound was tested for its ability to inhibit the urea facilitated transport in the urinary bladder of female frog, activity expressed as percent inhibition.; assay type: functional
[3] = Compound was tested for its ability to inhibit the urea facilitated transport in the urinary bladder of female frog after illumination, activity expressed as irreversibility of illumination.; assay type: functional
[4] = system: frog; assay: Concentration in urinary bladder of female frog; very low solubility; assay type: functional, tissue-based

| Compound | Concentration [1] | Inhibition [2] | Irreversibility [3] | Concentration [4] |
| --- | --- | --- | --- | --- |
| [N-]=[N+]=Nc1ccc(/N=C(/N)S)cc1 | 500 µM | 25% | 100% |  |
| [N-]=[N+]=Nc1ccc(NC(=S)Nc2ccc(Cl)c(Cl)c2)cc1 |  |  |  | very low solubility |
| C/N=C(\S)Nc1nc2cc(N=[N+]=[N-])ccc2[nH]1 | 500 µM | 29% | 100% |  |
| C/N=C(\S)Nc1ccc(Cl)c(N=[N+]=[N-])c1 | 31.6 µM | 50% | 100% |  |
| [N-]=[N+]=Nc1cc(/N=C(/N)S)ccc1Cl | 60.3 µM | 50% | 100% |  |

Reference: ChEMBL document CHEMBL1127154, “Azido-functionalized thiourea analogues acting as efficient photoaffinity probes for the urea channel” (1993)
